Test results taken from patent US20070179060A1, “6-(Poly-substituted aryl)-4-aminopicolinates and their use as herbicides” (priority 2006, published 2007).

Legend:
Type in all cases: in vivo
[1] = tested on: redroot pigweed (Amaranthus retroflexus); test: Preemergence herbicidal activity; conditions: Amaranthus retroflexus, pre-emergence, 480 h, pre-emergent, after 20-22 days, read-out: % Control AMARE; for pest or weed control at 140 g/ha: 140 g ai/ha
Procedure, shortened: (§1)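 Seeds sown in 70:30 loam (pH about 8.1, about 1.5% organic matter) and sand mix, then sprayed preemergence at 187 L/ha with a track sprayer; controls received solvent blank. Pots kept in greenhouse, about 15 h photoperiod, about 23-29° C. day and 22-28° C. night, top-irrigated.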

[2] = tested on: velvetleaf (Abutilon theophrasti); test: Preemergence herbicidal activity; conditions: Abutilon theophrasti, pre-emergence, 480 h, pre-emergent, after 20-22 days, read-out: % Control ABUTH; for pest or weed control at 140 g/ha: 140 g ai/ha
Procedure, shortened: as §1

[3] = tested on: lambsquarter (Chenopodium album); test: Preemergence herbicidal activity; conditions: Chenopodium album, pre-emergence, 480 h, pre-emergent, after 20-22 days, read-out: % Control CHEAL; for pest or weed control at 140 g/ha: 140 g ai/ha
Procedure, shortened: as §1

[4] = tested on: Galium aparine; test: Postemergence herbicidal activity in cereal crops; conditions: Galium aparine, post-emergence, 480 h, post-emergent, after 20-22 days, read-out: % Control GALAP; for pest or weed control at 17.5 g/ha: 17.5 g ai/ha; for pest or weed control at 35 g/ha: 35 g ai/ha
Procedure, shortened: (§2)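 Greenhouse plants (about 18 °C day/17 °C night, ~14 h photoperiod) were grown 7-36 days to the second or third true leaf stage. They were then sprayed overhead at 187 L/ha with compound in acetone/water/isopropanol/DMSO/crop oil/Triton X-77 carrier. Blank-sprayed plants served as controls, and watering was by sub-irrigation to avoid wash-off.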

[5] = tested on: Papaver rhoeas; test: Postemergence herbicidal activity in cereal crops; conditions: Papaver rhoeas, post-emergence, 480 h, post-emergent, after 20-22 days, read-out: % Control PAPRH; for pest or weed control at 17.5 g/ha: 17.5 g ai/ha; for pest or weed control at 35 g/ha: 35 g ai/ha
Procedure, shortened: as §2

[6] = tested on: Veronica persica; test: Postemergence herbicidal activity in cereal crops; conditions: Veronica persica, post-emergence, 480 h, post-emergent, after 20-22 days, read-out: % Control VERPE; for pest or weed control at 17.5 g/ha: 17.5 g ai/ha; for pest or weed control at 35 g/ha: 35 g ai/ha
Procedure, shortened: as §2

[7] = tested on: wheat (Triticum aestivum); test: Postemergence herbicidal activity in cereal crops; conditions: Triticum aestivum, post-emergence, 480 h, crop, post-emergent, after 20-22 days, read-out: % Control TRZAS; for plant injury at 17.5 g/ha: 17.5 g ai/ha; for plant injury at 35 g/ha: 35 g ai/ha
Procedure, shortened: as §2

[8] = tested on: Lamium purpureum; test: Postemergence herbicidal activity in cereal crops; conditions: Lamium purpureum, post-emergence, 480 h, post-emergent, after 20-22 days, read-out: % Control LAMPU; for pest or weed control at 17.5 g/ha: 17.5 g ai/ha; for pest or weed control at 35 g/ha: 35 g ai/ha
Procedure, shortened: as §2

[9] = tested on: barley (Hordeum vulare); test: Postemergence herbicidal activity in cereal crops; conditions: Hordeum, post-emergence, 480 h, crop, post-emergent, after 20-22 days, read-out: % Control HORVS; for pest or weed control at 17.5 g/ha: 17.5 g ai/ha; for pest or weed control at 35 g/ha: 35 g ai/ha
Procedure, shortened: as §2

[10] = tested on: redroot pigweed (Amaranthus retroflexus); test: Postemergence herbicidal activity; conditions: post-emergent, 140 g ai/ha, after 14 days; for pest or weed control at 140 g/ha: Amaranthus retroflexus, post-emergence, 336 h, read-out: % Control AMARE
Procedure, shortened: (§3)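 Compounds were applied postemergence by track sprayer delivering 187 L/ha, using a mixed organic/aqueous carrier containing crop oil concentrate and surfactant; solvent-blank sprays served as controls. Test plants were at the first to second true leaf stage after 7-21 days' greenhouse growth, were sub-irrigated after treatment, and were evaluated by probit analysis.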

[11] = tested on: velvetleaf (Abutilon theophrasti); test: Postemergence herbicidal activity; conditions: post-emergent, 140 g ai/ha, after 14 days; for pest or weed control at 140 g/ha: Abutilon theophrasti, post-emergence, 336 h, read-out: % Control ABUTH
Procedure, shortened: as §3

[12] = tested on: lambsquarter (Chenopodium album); test: Postemergence herbicidal activity; conditions: post-emergent, 140 g ai/ha, after 14 days; for pest or weed control at 140 g/ha: Chenopodium album, post-emergence, 336 h, read-out: % Control CHEAL
Procedure, shortened: as §3

Question: Which pest or weed control at 140 g/ha [1] does the source give for `COC(=O)c1nc(-c2ccc(Br)c(OC)c2F)cc(N)c1Cl` [Compound 27, 4-amino-6-(4-bromo-2-fluoro-3-methoxyphenyl)-3-chloro-pyridine-2-carboxylic acid methyl ester] here?
Answer: 100%

Question: What about the pest or weed control at 140 g/ha [2] of the same compound?
Answer: 100%

Question: And the pest or weed control at 140 g/ha [3]?
Answer: 90%

Question: What about the pest or weed control at 17.5 g/ha [4] of the same compound?
Answer: 99%

Question: What about the pest or weed control at 17.5 g/ha [5] of the same compound?
Answer: 100%

Question: What about the pest or weed control at 17.5 g/ha [6] of the same compound?
Answer: 50%

Question: What about the plant injury at 17.5 g/ha [7] of the same compound?
Answer: 5%

Question: What about the pest or weed control at 17.5 g/ha [8] of the same compound?
Answer: 100%

Question: What about the pest or weed control at 17.5 g/ha [9] of the same compound?
Answer: 5%

Question: What about the pest or weed control at 140 g/ha [10] of the same compound?
Answer: 90%

Question: And the pest or weed control at 140 g/ha [11]?
Answer: 100%

Question: And the pest or weed control at 140 g/ha [12]?
Answer: 100%

Question: Which results are given for `COC(=O)c1nc(-c2ccc(Cl)c(OC)c2F)cc(N)c1Cl` [Compound 42, 4-Amino-3-chloro-6-(4-chloro-2-fluoro-3-methoxyphenyl)pyridine-2-carboxylic acid methyl ester]?
Answer: pest or weed control at 140 g/ha [1]: 100%; pest or weed control at 140 g/ha [2]: 100%; pest or weed control at 140 g/ha [3]: 100%; pest or weed control at 17.5 g/ha [4]: 99%; pest or weed control at 17.5 g/ha [5]: 99%; pest or weed control at 17.5 g/ha [6]: 60%; plant injury at 17.5 g/ha [7]: 5%; pest or weed control at 17.5 g/ha [8]: 100%; pest or weed control at 17.5 g/ha [9]: 5%; pest or weed control at 140 g/ha [10]: 100%; pest or weed control at 140 g/ha [11]: 100%; pest or weed control at 140 g/ha [12]: 100%

Question: `COC(=O)c1nc(-c2ccc(Cl)c(OC)c2Cl)cc(N)c1Cl` [Compound 44, 4-Amino-3-chloro-6-(2,4-dichloro-3-methoxyphenyl)pyridine-2-carboxylic acid methyl ester] was tested. Which pest or weed control at 140 g/ha [1] did it give?
Answer: 30%

Question: What about the pest or weed control at 140 g/ha [2] of the same compound?
Answer: 95%

Question: And the pest or weed control at 140 g/ha [3]?
Answer: 95%

Question: And the pest or weed control at 35 g/ha [4]?
Answer: 65%

Question: What about the pest or weed control at 35 g/ha [5] of the same compound?
Answer: 90%

Question: And the pest or weed control at 35 g/ha [6]?
Answer: 60%

Question: And the plant injury at 35 g/ha [7]?
Answer: 10%

Question: What about the pest or weed control at 35 g/ha [8] of the same compound?
Answer: 99%

Question: What about the pest or weed control at 35 g/ha [9] of the same compound?
Answer: 5%

Question: And the pest or weed control at 140 g/ha [10]?
Answer: 100%

Question: What about the pest or weed control at 140 g/ha [11] of the same compound?
Answer: 100%

Question: What about the pest or weed control at 140 g/ha [12] of the same compound?
Answer: 100%

Question: How did the pest or weed control at 140 g/ha [1] turn out when `COC(=O)c1nc(-c2c(F)cc(Cl)c(OC)c2F)cc(N)c1Cl` [Compound 58, 4-Amino-3-chloro-6-(4-chloro-2,6-difluoro-3-methoxyphenyl)pyridine-2-carboxylic acid, methyl ester] was run?
Answer: 100%

Question: And the pest or weed control at 140 g/ha [2]?
Answer: 100%

Question: What about the pest or weed control at 140 g/ha [3] of the same compound?
Answer: 100%

Question: What about the pest or weed control at 17.5 g/ha [4] of the same compound?
Answer: 100%

Question: What about the pest or weed control at 17.5 g/ha [5] of the same compound?
Answer: 99%

Question: And the pest or weed control at 17.5 g/ha [6]?
Answer: 60%

Question: What about the plant injury at 17.5 g/ha [7] of the same compound?
Answer: 0%

Question: What about the pest or weed control at 17.5 g/ha [8] of the same compound?
Answer: 100%

Question: And the pest or weed control at 17.5 g/ha [9]?
Answer: 0%

Question: And the pest or weed control at 140 g/ha [10]?
Answer: 100%

Question: What about the pest or weed control at 140 g/ha [11] of the same compound?
Answer: 100%

Question: What about the pest or weed control at 140 g/ha [12] of the same compound?
Answer: 100%

Question: For `COC(=O)c1nc(-c2ccc(F)c(OC)c2F)cc(N)c1Cl` [Compound 70, 4-Amino-3-chloro-6-(2,4-difluoro-3-methoxyphenyl)pyridine-2-carboxylic acid, methyl ester], which pest or weed control at 140 g/ha [1] is on record?
Answer: 100%

Question: What about the pest or weed control at 140 g/ha [2] of the same compound?
Answer: 100%

Question: And the pest or weed control at 140 g/ha [3]?
Answer: 100%

Question: And the pest or weed control at 17.5 g/ha [4]?
Answer: 99%

Question: And the pest or weed control at 17.5 g/ha [5]?
Answer: 99%

Question: What about the pest or weed control at 17.5 g/ha [6] of the same compound?
Answer: 60%

Question: What about the plant injury at 17.5 g/ha [7] of the same compound?
Answer: 0%

Question: And the pest or weed control at 17.5 g/ha [8]?
Answer: 100%

Question: What about the pest or weed control at 17.5 g/ha [9] of the same compound?
Answer: 0%

Question: And the pest or weed control at 140 g/ha [10]?
Answer: 100%

Question: What about the pest or weed control at 140 g/ha [11] of the same compound?
Answer: 100%

Question: And the pest or weed control at 140 g/ha [12]?
Answer: 100%

Question: Which results are given for `COC(=O)c1nc(-c2c(F)cc(Br)c(OC)c2F)cc(N)c1Cl` [Compound 77, 4-Amino-6-(4-bromo-2,6-difluoro-3-methoxyphenyl)-3-chloropyridine-2-carboxylic acid, methyl ester]?
Answer: pest or weed control at 140 g/ha [1]: 100%; pest or weed control at 140 g/ha [2]: 100%; pest or weed control at 140 g/ha [3]: 100%; pest or weed control at 17.5 g/ha [4]: 99%; pest or weed control at 17.5 g/ha [5]: 99%; pest or weed control at 17.5 g/ha [6]: 65%; plant injury at 17.5 g/ha [7]: 0%; pest or weed control at 17.5 g/ha [8]: 100%; pest or weed control at 17.5 g/ha [9]: 0%; pest or weed control at 140 g/ha [10]: 100%; pest or weed control at 140 g/ha [11]: 100%; pest or weed control at 140 g/ha [12]: 100%

Question: Which results are given for `COc1c(Cl)ccc(-c2cc(N)c(Cl)c(C(=O)O)n2)c1F` [Compound 100, 4-Amino-3-chloro-6-(4-chloro-2-fluoro-3-methoxyphenyl)pyridine-2-carboxylic acid]?
Answer: pest or weed control at 140 g/ha [1]: 100%; pest or weed control at 140 g/ha [2]: 100%; pest or weed control at 140 g/ha [3]: 100%; pest or weed control at 17.5 g/ha [4]: 90%; pest or weed control at 17.5 g/ha [5]: 95%; pest or weed control at 17.5 g/ha [6]: 65%; plant injury at 17.5 g/ha [7]: 10%; pest or weed control at 17.5 g/ha [8]: 100%; pest or weed control at 17.5 g/ha [9]: 5%; pest or weed control at 140 g/ha [10]: 100%; pest or weed control at 140 g/ha [11]: 100%; pest or weed control at 140 g/ha [12]: 100%

Question: Which results are given for `COc1c(Cl)ccc(-c2cc(N)c(Cl)c(C(=O)O)n2)c1Cl` [Compound 103, 4-Amino-3-chloro-6-(2,4-dichloro-3-methoxyphenyl)pyridine-2-carboxylic acid]?
Answer: pest or weed control at 123 g/ha ([1]; 123 g ai/ha): 100%; pest or weed control at 123 g/ha ([2]; 123 g ai/ha): 90%; pest or weed control at 123 g/ha ([3]; 123 g ai/ha): 100%; pest or weed control at 35 g/ha [4]: 60%; pest or weed control at 35 g/ha [5]: 100%; pest or weed control at 35 g/ha [6]: 75%; plant injury at 35 g/ha [7]: 0%; pest or weed control at 35 g/ha [8]: 95%; pest or weed control at 35 g/ha [9]: 0%; % Control AMARE [10]: 100%; % Control ABUTH [11]: 95%; % Control CHEAL [12]: 100%
